Assay [1] concerns the target T1, human renin (Homo sapiens, UniProt P00797).
T1 sequence (P00797 67-406): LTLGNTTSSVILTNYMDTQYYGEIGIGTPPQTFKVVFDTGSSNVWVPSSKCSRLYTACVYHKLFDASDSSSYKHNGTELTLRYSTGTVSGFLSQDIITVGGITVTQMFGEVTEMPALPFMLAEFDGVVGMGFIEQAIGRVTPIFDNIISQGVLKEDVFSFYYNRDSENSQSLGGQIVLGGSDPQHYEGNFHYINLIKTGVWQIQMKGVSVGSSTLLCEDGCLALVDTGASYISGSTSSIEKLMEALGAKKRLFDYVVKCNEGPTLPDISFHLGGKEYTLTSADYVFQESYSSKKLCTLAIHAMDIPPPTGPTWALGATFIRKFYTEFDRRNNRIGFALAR
The following applies: 106th Annual Meeting of the Pharmaceutical Society of Japan (April, 1986)/Meeting of Japanese Circulation Journal (March, 1986); cited from earlier work.

In assay [2] the target is T1, human renin. Briefly: Human renin-sheep renin substrate reaction system in vitro. Type of assay: biochemical. The settings on record: pH 7.4, 15 minutes at 37° C., read-out: IC50 (molar concentration). How it is done: Human resin-sheep resin substrate reaction system in vitro To a mixture containing 200 μl of a 125 mM pyrophosphate buffer (pH 7.4), 25 μl of a 20 mM aqueous solution of […] as an angiotensin converting enzyme inhibitor, 50 μl of semipurified sheep renin substrate ([…]), 50 μl of dimethyl sulfoxide solution of an amino acid derivative of the present invention (or 50 μl of dimethyl sulfoxide as a control) and 150 μl of deionized water was added 25 μl of purified human renin (20-30 ng angiotensin I/ml/hr). The mixture was incubated for 15 minutes on a water bath at 37° C., and the reaction mixture was allowed to stand for 5 minutes on a water bath at 100° C. to stop the reaction. After cooling, 200 μl of the solution were taken up and the amount of angiotensin I produced by the addition of renin was determined by radioimmunoassay. The inhibitory effect was calculated by the following equation. [formula] The molar concentration which produced 50% inhibition (IC50) was calculated from the inhibition value obtained, and the results are shown below.

For assay [3], the target named is T2, renin in human high renin plasma (Homo sapiens, UniProt P00797).
T2 construct: 500 μl of human high renin plasma; from tissue; host or cells: human high renin plasma
T2 sequence (P00797 67-406): T1 sequence (P00797 67-406)
Put plainly: Renin inhibitory effect in a human high renin plasma. Format: biochemical. The following applies: pH 7.4, 30 minutes at 37° C., read-out: IC50 (molar concentration). How it is done:
Renin inhibitory effect in a human high renin plasma A mixture of 350 μl of a 0.5M phosphate buffer containing 14 mM EDTA 2Na and a 0.3% neomycin sulfate, which was adjusted to the pH of 7.4, 50 μl of a 20 mM an aqueous solution of […] as an angiotensin converting enzyme inhibitor and 100 μl of dimethyl sulfoxide solution containing an amino acid compound of the present invention was added to 500 μl of human high renin plasma. […] was incubated for 30 minutes at 37° C. in a water bath. A 200 μl sample was withdrawn from the incubated mixture, chilled immediately in an ice bath, and the amount of angiotensin I produced was determined by radioimmunoassay, and remaining of the mixture (200 μ[…] 4° C. in an ice bath. The amount of angiotensin I produced in the incubated mixture at 4° C. in an ice bath was determined by radioimmunoassay. As a control, the same procedure as above was carried out by using 100 μl of dimethyl sulfoxide alone in place of the 100 μl of dimethyl sulfoxide solution containing an amino acid compound of the present invention. The inhibitory effect was calculated by the following equation. [formula] The molar concentration which produced 50% inhibition (IC50) was calculated from the inhibition value obtained, and the results are shown below.

For another assay, the system named is common marmoset. Put plainly: Hypotensive effect in marmoset (furosemide-induced high renin state). Type of assay: in vivo. The following applies: oral. How it is done:
The experiment was carried out by using common marmoset as described in K. G. Hofbauer et al., Clinical and Experimental hypertension, Vol. A5, Nos. 7 & 8 (1983), pages 1237-1247.
Furosemide was orally administered three times to common marmoset at 15 mg per kilogram per day every other day to create a high renin state. Blood pressure of conscious marmoset was measured 2 days after the last administration of furosemide.
Measurement of blood pressure
Two conscious male marmosets weighing 365-380 g were fixed. Mean blood pressure at tail artery was recorded on pretismograph instument. The amino acid compound of the present invention, administered orally using a catheter.

Where [4] appears, read: 100 mg/kg, n = 2, 1 hour after administration, control 94.0 in (a), 90.9 in (c).
[5] abbreviates: 100 mg/kg, n = 2, 2 hours after administration, control 94.0 in (a), 90.9 in (c).
[6] abbreviates: 100 mg/kg, n = 2, 3 hours after administration, control 94.0 in (a), 90.9 in (c).
The mark [7] stands for this setting: 100 mg/kg, n = 2, 5 hours after administration, control 94.0 in (a), 90.9 in (c).
Where [8] appears, read: 100 mg/kg, n = 2, 7 hours after administration, control 94.0 in (a), 90.9 in (c).

In the case of `CC(C)CC(NC(=O)[C@H](Cc1c[nH]cn1)NC(=O)C(CC(=O)N1CCOCC1)Cc1cccc2ccccc12)C(O)C(=O)OC(C)C` (some centres unmarked), the “human renin inhibitory activity” value at human renin [1] is given as “human renin inhibitory activity”.

As to `COC(=O)CC(Cc1cccc2ccccc12)C(=O)N[C@@H](Cc1c[nH]cn1)C(=O)N[C@@H](CC(C)C)C(O)C(=O)OC(C)C` (mixture of isomers) [Isopropyl (2RS,3S)-3-[3-(methoxycarbonyl)-2-(1-naphthylmethyl)propionyl-L-histidyl]amino-2-hydroxy-5-methylhexanoate], the IC50 on human renin [2] stood at 25 nM; in assay [3] it was 56 nM. The Blood pressure in the assay on common marmoset (setting [4]) stood at 78.6 mmHg; in the assay with common marmoset (setting [5]) it was 76.9 mmHg; with common marmoset (setting [6]), 69.4 mmHg; in the assay on common marmoset (setting [7]) it was 76.0 mmHg; in the assay with common marmoset (setting [8]), 77.8 mmHg; in the assay on common marmoset (100 mg/kg, n = 2, 9 hours after administration, control 90.9 in (c)), 85.3 mmHg.

For the compound `COC(=O)CN(C)C(=O)CC(Cc1cccc2ccccc12)C(=O)N[C@@H](Cc1c[nH]cn1)C(=O)N[C@@H](CC(C)C)C(O)C(=O)OC(C)C` (mixture of isomers) [Isopropyl(2RS,3S)-3-{N-[2-(1-naphthylmethyl)-3-(N-methyl-N-methoxycarbonylmethylcarbamoyl)propionyl]-L-histidyl}amino-2-hydroxy-5-methylhexanoate], the IC50 at human renin [2] came to 17 nM; in assay [3], 20 nM. For the same compound, the Blood pressure was 62.1 mmHg in the assay on common marmoset (30 mg/kg, n = 2, 1 hour after administration, control 95.4); 59.8 mmHg with common marmoset (30 mg/kg, n = 2, 2 hours after administration, control 95.4); 66.5 mmHg in the assay with common marmoset (30 mg/kg, n = 2, 3 hours after administration, control 95.4); 84.9 mmHg with common marmoset (30 mg/kg, n = 2, 5 hours after administration, control 95.4); 88.3 mmHg with common marmoset (30 mg/kg, n = 2, 7 hours after administration, control 95.4).

On to `COC(=O)[C@@H]1CCCN1C(=O)CC(Cc1cccc2ccccc12)C(=O)N[C@@H](Cc1c[nH]cn1)C(=O)N[C@@H](CC(C)C)C(O)C(=O)OC(C)C` (stereo partly drawn) [Isopropyl(2RS,3S)-3-{N-[2-(1-naphthylmethyl)-3-(2S-methoxycarbonylpyrrolidinocarbonyl)propionyl]-L-histidyl}-amino-2-hydroxy-5-methylhexanoate], for which the IC50 at human renin [2] turned out to be 52 nM; in assay [3], 50 nM. Moreover, the Blood pressure was 77.5 mmHg in the assay on common marmoset (setting [4]); 74.0 mmHg with common marmoset (setting [5]); 70.0 mmHg in the assay with common marmoset (setting [6]); 92.2 mmHg in the assay with common marmoset (setting [7]); 101.5 mmHg in the assay with common marmoset (setting [8]).

In the case of `COC(=O)[C@H](C)N(C)C(=O)CC(Cc1cccc2ccccc12)C(=O)N[C@@H](Cc1c[nH]cn1)C(=O)N[C@@H](CC(C)C)C(O)C(=O)OC(C)C` (stereo partly drawn) [Isopropyl(2RS,3S)-3-{N-{2-(1-naphthylmethyl)-3-[N-methyl-N-(1S-methoxycarbonylethyl)carbamoyl]propionyl}-L-histidyl}amino-2-hydroxy-5-methylhexanoate], the figures for the IC50 (at human renin [2]; in assay [3]) were 33 nM and 16 nM, respectively.

`COC(=O)[C@H]1CCCN1C(=O)CC(Cc1cccc2ccccc12)C(=O)N[C@@H](Cc1c[nH]cn1)C(=O)N[C@@H](CC(C)C)C(O)C(=O)OC(C)C` (stereo partly drawn) [Isopyl(2RS,3S)-3-{N-[2-(1-naphthylmethyl)-3-(2R-methoxycarbonylpyrrolidinocarbonyl)propionyl]-L-histidyl}amino-2-hydroxy-5-methylhexanoate]: the results for the IC50 (at human renin [2]; in assay [3]) were 28 nM and 15 nM, respectively.

Regarding `COC(=O)C(O)[C@H](CC(C)C)NC(=O)[C@H](Cc1c[nH]cn1)NC(=O)C(CC(=O)N1CCC[C@H]1C(=O)OC)Cc1cccc2ccccc12` (stereo partly drawn) [Methyl(2RS,3S)-3-{N-[2-(1-naphthylmethyl)-3-(2S-methoxycarbonylpyrrolidinocarbonyl)propionyl]-L-histidyl}amino-2-hydroxy-5-methylhexanoate], the values for the IC50 (on human renin [2]; in assay [3]) were 40 nM and 53 nM, respectively.

As to `COC(=O)[C@@H]1CCCN1C(=O)CC(Cc1cccc2ccccc12)C(=O)N[C@@H](Cc1c[nH]cn1)C(=O)N[C@@H](CC(C)C)[C@@H](O)CC(=O)NCCC(C)C` (stereo partly drawn) [N-[2-(1-Naphthylmethyl)-3-(2S-methoxycarbonylpyrrolidinocarbonyl)propionyl]-L-histidyl-statylisoamylamide], the IC50 is 120 nM on human renin [2] and 220 nM in assay [3].

`COC(=O)CN(C)C(=O)CC(Cc1cccc2ccccc12)C(=O)N[C@@H](Cc1c[nH]cn1)C(=O)N[C@@H](CC(C)C)[C@@H](O)CC(=O)NCCC(C)C` (stereo partly drawn) [N-[2-(1-Naphthylmethyl)-3-(N-methyl-N-methoxycarbonylmethylcarbamoyl)propionyl]-L-histidyl-statylisoamylamide]: the IC50 (on human renin [2]; in assay [3]) was 35 nM throughout.

Turning to `COC(=O)CC(Cc1cccc2ccccc12)C(=O)N[C@@H](Cc1c[nH]cn1)C(=O)N[C@@H](CC(C)C)[C@@H](O)CC(=O)NCCC(C)C` (stereo partly drawn) [N-[3-(methoxycarbonyl)-2-(1-naphthylmethyl)propionyl]-L-histidyl-statylisoamylamide], the IC50 came out at 37 nM on human renin [2] and 60 nM in assay [3].

The values above are taken from US4857650A, “Novel renin inhibitory amino acid derivatives” (Kissei Pharmaceutical Co., Ltd., priority 1985, dated 1989).
